Legend:
blackgrass = assay: Test B pre/postemergence blackgrass; type: in vivo, Alopecurus myosuroides
Method in brief: (§1)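 Test chemicals in a non-phytotoxic solvent mixture with surfactant were sprayed preemergence onto planted seeds and postemergence onto plants 2 to 18 cm tall (1- to 4-leaf stage). After twelve to sixteen days in a greenhouse, injury was visually rated against untreated controls from 0 (no effect) to 10 (complete control).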

giant foxtail = assay: Test B pre/postemergence giant foxtail; type: in vivo, Setaria faberii
Method in brief: as §1

bedstraw = assay: Test B pre/postemergence bedstraw; type: in vivo, Galium aparine
Method in brief: as §1

crabgrass = assay: Test B pre/postemergence crabgrass; type: in vivo, Digitaria sanguinalis
Method in brief: as §1

rape = assay: Test B pre/postemergence rape; type: in vivo, Brassica napus
Method in brief: as §1

morningglory = assay: Test B pre/postemergence morningglory; type: in vivo, Ipomoea hederacea
Method in brief: as §1

cocklebur = assay: Test B pre/postemergence cocklebur; type: in vivo, Xanthium strumarium
Method in brief: as §1

surinam grass = assay: Test B pre/postemergence surinam grass; type: in vivo, Brachiaria decumbens
Method in brief: as §1

wild oat = assay: Test B pre/postemergence wild oat; type: in vivo, Avena fatua
Method in brief: as §1

sugar beet = assay: Test B pre/postemergence sugar beet; type: in vivo, Beta vulgaris
Method in brief: as §1

corn = assay: Test B pre/postemergence corn; type: in vivo, Zea mays
Method in brief: as §1

velvetleaf = assay: Test B pre/postemergence velvetleaf; type: in vivo, Abutilon theophrasti
Method in brief: as §1

pigweed = assay: Test B pre/postemergence pigweed; type: in vivo, Amaranthus retroflexus
Method in brief: as §1

purple nutsedge = assay: Test B pre/postemergence purple nutsedge; type: in vivo, Cyperus rotundus
Method in brief: as §1

soybean = assay: Test B pre/postemergence soybean; type: in vivo, Glycine max
Method in brief: as §1

wheat = assay: Test B pre/postemergence wheat; type: in vivo, Triticum aestivum
Method in brief: as §1

[1] = Postemergence, Rate 62 g/ha, scale 0 to 10, 0 is no effect, 10 is complete control
[2] = Postemergence, Rate 125 g/ha, scale of 0 to 10 where 0 is no effect and 10 is complete control
[3] = Postemergence, Rate 500 g/ha, scale 0 (no effect) to 10 (complete control)
[4] = Preemergence, Rate 250 g/ha, scale 0 (no effect) to 10 (complete control)
[5] = Rate 62 g/ha, Preemergence, scale 0 to 10
[6] = Rate 125 g/ha, Preemergence, scale 0 to 10 (0 no effect, 10 complete control)
[7] = Rate 250 g/ha, Postemergence, scale 0 to 10, 0 is no effect, 10 is complete control
[8] = Rate 500 g/ha, Preemergence, scale 0 to 10 (0 no effect, 10 complete control)

C#CC(C)n1c(=O)on(C(=O)N(c2ccc(F)cc2)C(C)C)c1=O (stereo not shown) [Compound 763]
Plant response rating, Blackgrass (blackgrass; [1]): 5 | Blackgrass plant response rating (blackgrass; [2]): 5 | Blackgrass plant response rating (blackgrass; [3]): 5 | Blackgrass plant response rating (blackgrass; [4]): 9 | Blackgrass plant response rating (blackgrass; [5]): 8 | Blackgrass plant response rating (blackgrass; [6]): 9 | Blackgrass plant response rating (blackgrass; [7]): 5 | Blackgrass plant response rating (blackgrass; [8]): 10 | Plant response rating, Giant foxtail (giant foxtail; [1]): 6 | Giant foxtail plant response rating (giant foxtail; [2]): 8 | Giant foxtail plant response rating (giant foxtail; [3]): 9 | Giant foxtail plant response rating (giant foxtail; [4]): 9 | Giant foxtail plant response rating (giant foxtail; [5]): 9 | Giant foxtail plant response rating (giant foxtail; [6]): 9 | Giant foxtail plant response rating (giant foxtail; [7]): 9 | Giant foxtail plant response rating (giant foxtail; [8]): 9 | Bedstraw plant response rating (bedstraw; [2]): 0 | Bedstraw plant response rating (bedstraw; [3]): 4 | Bedstraw plant response rating (bedstraw; [4]): 7 | Bedstraw plant response rating (bedstraw; [5]): 0 | Bedstraw plant response rating (bedstraw; [6]): 6 | Bedstraw plant response rating (bedstraw; [8]): 8 | Plant response rating, Crabgrass (crabgrass; [1]): 2 | Crabgrass plant response rating (crabgrass; [2]): 5 | Crabgrass plant response rating (crabgrass; [3]): 9 | Crabgrass plant response rating (crabgrass; [4]): 10 | Crabgrass plant response rating (crabgrass; [5]): 9 | Crabgrass plant response rating (crabgrass; [6]): 9 | Crabgrass plant response rating (crabgrass; [7]): 8 | Crabgrass plant response rating (crabgrass; [8]): 9 | Plant response rating, Rape (rape; [1]): 0 | Rape plant response rating (rape; [2]): 0 | Rape plant response rating (rape; [3]): 3 | Rape plant response rating (rape; [4]): 6 | Rape plant response rating (rape; [5]): 0 | Rape plant response rating (rape; [6]): 5 | Rape plant response rating (rape; [7]): 0 | Rape plant response rating (rape; [8]): 9 | Plant response rating, Morningglory (morningglory; [1]): 2 | Morningglory plant response rating (morningglory; [2]): 7 | Morningglory plant response rating (morningglory; [3]): 7 | Morningglory plant response rating (morningglory; [4]): 0 | Morningglory plant response rating (morningglory; [5]): 0 | Morningglory plant response rating (morningglory; [6]): 0 | Morningglory plant response rating (morningglory; [7]): 7 | Morningglory plant response rating (morningglory; [8]): 5 | Plant response rating, Cocklebur (cocklebur; [1]): 0 | Cocklebur plant response rating (cocklebur; [2]): 0 | Cocklebur plant response rating (cocklebur; [3]): 3 | Cocklebur plant response rating (cocklebur; [4]): 0 | Cocklebur plant response rating (cocklebur; [5]): 0 | Cocklebur plant response rating (cocklebur; [6]): 0 | Cocklebur plant response rating (cocklebur; [7]): 1 | Cocklebur plant response rating (cocklebur; [8]): 0 | Plant response rating, B. signalgrass (surinam grass; [1]): 0 | B. signalgrass plant response rating (surinam grass; [2]): 3 | B. signalgrass plant response rating (surinam grass; Preemergence, Rate 62 g/ha, scale of 0 to 10 where 0 is no effect and 10 is complete control): 0 | B. signalgrass plant response rating (surinam grass; [4]): 9 | B. signalgrass plant response rating (surinam grass; [6]): 9 | B. signalgrass plant response rating (surinam grass; [7]): 5 | B. signalgrass plant response rating (surinam grass; Rate 500 g/ha, Postemergence, scale 0 to 10, 0 is no effect, 10 is complete control): 5 | B. signalgrass plant response rating (surinam grass; [8]): 8 | Plant response rating, Wild oats (wild oat; [1]): 0 | Wild oats plant response rating (wild oat; [3]): 1 | Wild oats plant response rating (wild oat; [4]): 9 | Wild oats plant response rating (wild oat; [5]): 2 | Wild oats plant response rating (wild oat; [6]): 8 | Wild oats plant response rating (wild oat; [8]): 9 | Plant response rating, Sugarbeets (sugar beet; [1]): 0 | Sugarbeets plant response rating (sugar beet; [3]): 4 | Sugarbeets plant response rating (sugar beet; [4]): 3 | Sugarbeets plant response rating (sugar beet; [5]): 0 | Sugarbeets plant response rating (sugar beet; [6]): 0 | Sugarbeets plant response rating (sugar beet; [7]): 2 | Sugarbeets plant response rating (sugar beet; [8]): 6 | Plant response rating, Corn (corn; [1]): 0 | Corn plant response rating (corn; [2]): 0 | Corn plant response rating (corn; [3]): 2 | Corn plant response rating (corn; [4]): 0 | Corn plant response rating (corn; [5]): 0 | Corn plant response rating (corn; [6]): 0 | Corn plant response rating (corn; [7]): 0 | Corn plant response rating (corn; [8]): 0 | Plant response rating, Velvetleaf (velvetleaf; [1]): 0 | Velvetleaf plant response rating (velvetleaf; [3]): 2 | Velvetleaf plant response rating (velvetleaf; [4]): 1 | Velvetleaf plant response rating (velvetleaf; [5]): 0 | Velvetleaf plant response rating (velvetleaf; [6]): 1 | Velvetleaf plant response rating (velvetleaf; [7]): 0 | Velvetleaf plant response rating (velvetleaf; [8]): 3 | Plant response rating, Redroot pigweed (pigweed; [1]): 0 | Redroot pigweed plant response rating (pigweed; [2]): 0 | Redroot pigweed plant response rating (pigweed; [3]): 8 | Redroot pigweed plant response rating (pigweed; [4]): 10 | Redroot pigweed plant response rating (pigweed; [5]): 8 | Redroot pigweed plant response rating (pigweed; [6]): 9 | Redroot pigweed plant response rating (pigweed; [7]): 3 | Redroot pigweed plant response rating (pigweed; [8]): 10 | Plant response rating, Nutsedge (purple nutsedge; [1]): 0 | Nutsedge plant response rating (purple nutsedge; [2]): 0 | Nutsedge plant response rating (purple nutsedge; [3]): 6 | Nutsedge plant response rating (purple nutsedge; [5]): 0 | Nutsedge plant response rating (purple nutsedge; [7]): 3 | Nutsedge plant response rating (purple nutsedge; [8]): 5 | Plant response rating, Soybean (soybean; [1]): 2 | Soybean plant response rating (soybean; [3]): 5 | Soybean plant response rating (soybean; [4]): 0 | Soybean plant response rating (soybean; [5]): 0 | Soybean plant response rating (soybean; [6]): 0 | Soybean plant response rating (soybean; [7]): 3 | Soybean plant response rating (soybean; [8]): 0 | Plant response rating, Wheat (wheat; [1]): 0 | Wheat plant response rating (wheat; [3]): 3 | Wheat plant response rating (wheat; [4]): 5 | Wheat plant response rating (wheat; [5]): 0 | Wheat plant response rating (wheat; [6]): 0 | Wheat plant response rating (wheat; [7]): 4 | Wheat plant response rating (wheat; [8]): 7

Reference: patent publication US6737383B1, “Herbicidal oxadiazolidines” (priority 1999, dated 2004)
